Assay results: ChEMBL document CHEMBL1125499, “Enantiomeric N-substituted N-normetazocines: a comparative study of affinities at sigma, PCP, and mu opioid receptors” (J Med Chem, 1992)

Assays:
Mu-type opioid receptor = Mu-type opioid receptor (Rattus norvegicus, UniProt P33535); test: Binding affinity against opioid receptor mu using [3H]-DAMGO as radioligand.
[1] = Binding affinity against PCP receptor using [3H]TCP as radioligand.
[2] = Ratio of binding affinities of pcp receptor(ki(nM)) to sigma opioid receptor(ki(nM))
[3] = Binding affinity against sigma opioid receptor using [3H]pentazocine as radioligand.
[4] = Binding affinity against sigma opioid receptor using [3H](+)-3-PPP as radioligand.

Mu-type opioid receptor, sequence (P33535 whole entry): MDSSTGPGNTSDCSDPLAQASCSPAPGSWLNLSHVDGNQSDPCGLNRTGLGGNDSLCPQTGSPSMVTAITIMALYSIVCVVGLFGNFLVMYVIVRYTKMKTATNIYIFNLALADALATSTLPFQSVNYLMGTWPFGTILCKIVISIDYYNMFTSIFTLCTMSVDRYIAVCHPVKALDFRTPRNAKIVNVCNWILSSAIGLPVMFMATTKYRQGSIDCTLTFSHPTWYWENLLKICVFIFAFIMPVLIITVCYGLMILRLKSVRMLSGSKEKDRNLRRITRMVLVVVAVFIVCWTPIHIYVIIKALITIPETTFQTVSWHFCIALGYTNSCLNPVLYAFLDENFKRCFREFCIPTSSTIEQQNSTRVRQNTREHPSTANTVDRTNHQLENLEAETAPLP

CC(C)CCN1CC[C@]2(C)c3cc(O)ccc3C[C@@H]1[C@@H]2C
Ki (Mu-type opioid receptor): 4.9 nM | Ki [1]: 2740 nM | Ratio [2]: 313 | Ki [3]: 8.74 nM

C[C@@H]1[C@@H]2Cc3ccc(O)cc3[C@@]1(C)CCN2CCc1ccccc1
Ki (Mu-type opioid receptor): 55 nM | Ki [1]: > 10000 nM | Ratio [2]: > 2560 | Ki [3]: 3.9 nM

CC#CCN1CC[C@]2(C)c3cc(O)ccc3C[C@@H]1[C@@H]2C
Ki (Mu-type opioid receptor): 5.1 nM | Ki [1]: 360 nM

C[C@H]1[C@H]2Cc3ccc(O)cc3[C@]1(C)CCN2CC1CC1 [CYCLAZOCINE]
Ki (Mu-type opioid receptor): 0.18 nM | Ki [1]: 107 nM

C=C[C@H](C)N1CC[C@]2(C)c3cc(O)ccc3C[C@@H]1[C@@H]2C
Ki (Mu-type opioid receptor): 3 nM | Ki [1]: 2200 nM

C[C@@H]1[C@@H]2Cc3ccc(O)cc3[C@]1(C)CCN2
Ki (Mu-type opioid receptor): 470 nM | Ki [1]: 30 nM

C[C@@H]1[C@@H]2Cc3ccc(O)cc3[C@]1(C)CCN2C
Ki (Mu-type opioid receptor): 4970 nM | Ki [1]: 41 nM

C[C@H]1[C@H]2Cc3ccc(O)cc3[C@]1(C)CCN2CCc1ccccc1
Ki (Mu-type opioid receptor): 0.2 nM | Ki [1]: 1880 nM | Ratio [2]: 30.5 | Ki [3]: 61.7 nM

CC#CCN1CC[C@@]2(C)c3cc(O)ccc3C[C@H]1[C@H]2C
Ki (Mu-type opioid receptor): 1000 nM | Ki [1]: 1230 nM | Ki [4]: 93.7 nM

C=C[C@@H](C)N1CC[C@]2(C)c3cc(O)ccc3C[C@@H]1[C@@H]2C
Ki (Mu-type opioid receptor): 5.9 nM | Ki [1]: 1900 nM

C[C@@H]1[C@@H]2Cc3ccc(O)cc3[C@]1(C)CCN2C/C=C/Cl
Ki (Mu-type opioid receptor): 1980 nM | Ki [1]: 250 nM | Ratio [2]: 24 | Ki [3]: 10.5 nM

C[C@@H]1[C@@H]2Cc3ccc(O)cc3[C@]1(C)CCN2CCCCCc1ccccc1
Ki (Mu-type opioid receptor): 260 nM | Ki [1]: > 10000 nM | Ratio [2]: > 3790 | Ki [3]: 2.64 nM

CC(C)=CCN1CC[C@]2(C)c3cc(O)ccc3C[C@H]1[C@H]2C [(+)-PENTAZOCINE]
Ki [1]: 4040 nM | Ratio [2]: 1300

C=C[C@H](C)N1CC[C@@]2(C)c3cc(O)ccc3C[C@H]1[C@H]2C
Ki (Mu-type opioid receptor): 2270 nM | Ki [1]: 90 nM | Ki [4]: 159 nM

C[C@H]1[C@H]2Cc3ccc(O)cc3[C@@]1(C)CCN2CCCCc1ccccc1
Ki (Mu-type opioid receptor): 4 nM | Ki [1]: 5960 nM | Ratio [2]: 70 | Ki [3]: 85.2 nM

C[C@@H]1[C@@H]2Cc3ccc(O)cc3[C@]1(C)CCN2CCCCc1ccccc1
Ki (Mu-type opioid receptor): 270 nM | Ki [1]: > 10000 nM | Ratio [2]: 3100 | Ki [3]: 3.23 nM

C[C@H]1[C@H]2Cc3ccc(O)cc3[C@@]1(C)CCN2CCCCCc1ccccc1
Ki (Mu-type opioid receptor): 68 nM | Ki [1]: > 10000 nM | Ratio [2]: 260 | Ki [3]: 38.5 nM

C[C@H]1[C@H]2Cc3ccc(O)cc3[C@@]1(C)CCN2Cc1ccccc1
Ki (Mu-type opioid receptor): 97 nM | Ki [1]: 6500 nM | Ki [3]: 36.5 nM

C=CCN1CC[C@]2(C)c3cc(O)ccc3C[C@@H]1[C@@H]2C
Ki (Mu-type opioid receptor): 3.6 nM | Ki [1]: 504 nM | Ki [3]: > 3000 nM

C[C@@H]1[C@@H]2Cc3ccc(O)cc3[C@]1(C)CCN2CCCc1ccccc1
Ki (Mu-type opioid receptor): 343 nM | Ki [1]: 9700 nM | Ratio [2]: 8440 | Ki [3]: 1.15 nM

C[C@@H]1[C@@H]2Cc3ccc(O)cc3[C@]1(C)CCN2Cc1ccccc1
Ki (Mu-type opioid receptor): 1610 nM | Ki [1]: > 10000 nM | Ki [3]: 0.67 nM

C[C@H]1[C@H]2Cc3ccc(O)cc3[C@@]1(C)CCN2C/C=C/Cl
Ki (Mu-type opioid receptor): 1.5 nM | Ki [1]: 470 nM | Ratio [2]: 1.2 | Ki [3]: 403 nM

C[C@H]1[C@H]2Cc3ccc(O)cc3[C@@]1(C)CCN2
Ki (Mu-type opioid receptor): 23 nM | Ki [1]: 197 nM | Ki [3]: 5580 nM

C/C=C\CN1CC[C@@]2(C)c3cc(O)ccc3C[C@H]1[C@H]2C
Ki (Mu-type opioid receptor): 1690 nM | Ki [1]: 381 nM

CC(C)=CCN1CC[C@@]2(C)c3cc(O)ccc3C[C@@H]1[C@@H]2C
Ki (Mu-type opioid receptor): 13 nM | Ki [1]: 842 nM | Ratio [2]: 10.1

C=C[C@@H](C)N1CC[C@@]2(C)c3cc(O)ccc3C[C@H]1[C@H]2C
Ki (Mu-type opioid receptor): 690 nM | Ki [1]: 200 nM

C[C@H]1[C@H]2Cc3ccc(O)cc3[C@@]1(C)CCN2CCCc1ccccc1
Ki (Mu-type opioid receptor): 20 nM | Ki [1]: 3600 nM | Ratio [2]: 93.3 | Ki [3]: 38.6 nM

C[C@@H]1[C@@H]2Cc3ccc(O)cc3[C@@]1(C)CN2CC1CC1
Ki (Mu-type opioid receptor): 1240 nM | Ki [1]: 153 nM | Ratio [2]: 8.9 | Ki [3]: 17.2 nM

C=CCN1CC[C@@]2(C)c3cc(O)ccc3C[C@H]1[C@H]2C
Ki (Mu-type opioid receptor): > 10000 nM | Ki [1]: 225 nM

C/C=C/CN1CC[C@]2(C)c3cc(O)ccc3C[C@@H]1[C@@H]2C
Ki (Mu-type opioid receptor): 9 nM | Ki [1]: 347 nM

C/C=C/CN1CC[C@@]2(C)c3cc(O)ccc3C[C@H]1[C@H]2C
Ki (Mu-type opioid receptor): 5620 nM | Ki [1]: 179 nM | Ki [4]: 52.5 nM

C/C=C\CN1CC[C@]2(C)c3cc(O)ccc3C[C@@H]1[C@@H]2C
Ki (Mu-type opioid receptor): 11 nM | Ki [1]: 1120 nM | Ki [4]: 460 nM

CC(C)CCN1CC[C@@]2(C)c3cc(O)ccc3C[C@H]1[C@H]2C
Ki (Mu-type opioid receptor): 3500 nM | Ki [1]: > 10000 nM | Ratio [2]: > 4440 | Ki [3]: 2.25 nM

C[C@H]1[C@H]2Cc3ccc(O)cc3[C@@]1(C)CCN2C
Ki (Mu-type opioid receptor): 11 nM | Ki [1]: 1190 nM
